Experimental data: PubChem BioAssay AID602211 (Sanford-Burnham Center for Chemical Genomics, 2012)
Activity calls are given as the source filed them.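 Rule for the calls: active = mean IC50 at or below 10 µM; inactive = the rest.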

System: H9c2 cardiomyocytes, H2O2 protection, ATPLite viability, 2 h
Assay: H2O2-induced H9c2 cell death suppression – ATPLite luminescence, set 2, dose response (AID 602211);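 note: potency is for protection so actives keep ATP signal up against peroxide killing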

In the case of CCOC(=O)c1c2c3c(cccc3n(C)c1=O)C(=O)c1ccccc1-2, the IC50 is reported as 10.1 µM (inactive).

For COc1cc(C(=O)Nc2ccc(NC(=O)c3ccco3)nc2)cc(OC)c1OC, the IC50 was 25.7 µM (inactive).

Work on CCOC(=O)C(Cc1ccc(NC(=O)/C(=C/c2ccc(OC(C)=O)cc2)NC(C)=O)cc1)N1C(=O)c2ccccc2C1=O (stereo not drawn) yielded an IC50 of 2.78 µM.

Molecule CNC(=O)COC(=O)/C=C/c1cn(-c2ccccc2)nc1-c1ccc(C)o1 has an IC50 of 6.31 µM.

For CC(=O)Nc1cc(C)nn1-c1nc2ccccc2s1, the IC50 was 14.6 µM (inactive).

Molecule O=C(Nc1ccccc1)c1nc[nH]c1C(=O)NCCNC(=O)c1[nH]cnc1C(=O)Nc1ccccc1 has an IC50 of 0.668 µM.

With CCN(C[C@H]1N[C@@](C)(C(=O)OC)[C@H]2C(=O)N(Cc3ccccc3)C(=O)[C@@H]12)C(=O)c1ccc(C(C)(C)C)cc1 the IC50 was 6.25 µM.

Cc1cc(NC(=O)C2CCCCC2)nc2c1c(=O)oc1ccccc12 was tested, and the IC50 was 23.7 µM (inactive).

With O=C/C(=C\Nc1ccccn1)c1nc2cc(Cl)ccc2o1 the IC50 was 9.92 µM.

Cc1nc(N2CCN(c3ccccn3)CC2)c2c(C)c(C(=O)Nc3ccccc3F)sc2n1 showed an IC50 of 4.04 µM.

For COc1cc(-c2cc3nc(NCCc4ccc(S(N)(=O)=O)cc4)ccn3n2)cc(OC)c1OC, the IC50 was 12.1 µM (inactive).

In the case of CCn1c(SCC(=O)Nc2ccccc2N2CCCCC2)nc2c1c(=O)n(C)c(=O)n2C, the IC50 is reported as > 79 µM (inactive).

COc1cccc(-c2cnc3c(NC=O)cc(-c4cccc(C(=O)N(C)C)c4)cn23)c1 was tested, and the IC50 was 12.6 µM (inactive).

Work on Cc1ccc(-c2csc(N3CCC[C@@H]3C(=O)NCCn3c(-c4ccncc4)nc4ccccc43)n2)cc1 yielded an IC50 of 2.83 µM.

With CC(C)c1cc(N2CCN(C(=O)c3ccco3)CC2)n2c(nc3ccccc32)c1C#N the IC50 was 44.8 µM (inactive).

In the case of COc1cc(CN2C[C@@H](CO)O[C@@H](n3cnc4c(Nc5ccccc5)ncnc43)C2)cc(OC)c1OC, the IC50 is reported as 10.6 µM (inactive).

With CC(C)CCN(C(=O)CNC(=O)c1ccco1)C(C(=O)NC1CCCCC1)c1ccco1 (stereo not drawn) the IC50 was 13.4 µM (inactive).

O=C1OCCN1C(=O)[C@H]1[C@H](c2ccc([N+](=O)[O-])cc2)C(c2ccc(F)cc2)=NN1c1ccc(Br)cc1 was tested, and the IC50 was 3.09 µM.

O=C(NCCc1c[nH]c2ccccc12)C(=O)NCC(c1ccco1)N1CCN(c2ccccc2F)CC1 (stereo not drawn) gave an IC50 of 5.64 µM.

Molecule CCCCn1nc(NC(=O)c2cccs2)c2cc3cc(OC)ccc3nc21 has an IC50 of 3.61 µM.

COc1cc(/C=N\NC(=O)c2cccnc2)ccc1OC(=O)c1ccccc1Cl was tested, and the IC50 was 30 µM (inactive).

In the case of CC(C)C(=O)N1CCN(c2ccc(NC(=O)COc3ccccc3[N+](=O)[O-])cc2)CC1, the IC50 is reported as 1.07 µM.

With COc1cc(NC(=O)c2ccco2)c(OC)cc1NC(=O)c1cc(OC)c(OC)c(OC)c1 the IC50 was 11.3 µM (inactive).

With CC(C)(C)C(=O)Nc1cccc(-c2nnc(-c3cccc(NC(=O)C(C)(C)C)c3)o2)c1 the IC50 was 4.79 µM.

For COC(=O)c1ccccc1NC(=O)c1nc2nc(C)cc(C)n2n1, the IC50 was 31.2 µM (inactive).

Molecule COc1ccc(C(C(=O)NCc2ccccc2)N(Cc2ccco2)C(=O)c2snc(C(N)=O)c2N)cc1 (stereo not drawn) has an IC50 of 3.63 µM.

In the case of CCCNC(=O)c1c(N)n(-c2cccc(OC)c2)c2nc3ccccc3nc12, the IC50 is reported as > 79 µM (inactive).

Work on COc1cc(-c2cc(C(=O)Nc3cccc(C(C)=O)c3)c3ccccc3n2)cc(OC)c1OC yielded an IC50 of 3.59 µM.

With COc1ccccc1OCC(=O)N/N=C/c1cccc2cccnc12 the IC50 was 14.1 µM (inactive).

CCc1nc2ccc(C(=O)Nc3cc(-c4ccccc4)ccc3OC)cn2c1N(C)Cc1nccs1 was tested, and the IC50 was 5.95 µM.

COc1ccccc1CN(C(=O)CNC(=O)c1ccco1)C(C(=O)NCC1CCCO1)c1ccccc1 (stereo not drawn) was tested, and the IC50 was 9.67 µM.

With COc1cc(/C=N/NC(=O)c2cccnc2)ccc1OS(=O)(=O)c1cc(C)ccc1C the IC50 was > 79 µM (inactive).

For CCOc1ccc2[nH]c(=O)c(CN(Cc3nnnn3Cc3ccco3)C3CCCCC3)cc2c1, the IC50 was > 79 µM (inactive).

For CC(C)C1Nc2ccc(C(=O)N3CCN(c4ccccn4)CC3)cc2NC1=O (stereo not drawn), the IC50 was 22.9 µM (inactive).

NS(=O)(=O)c1ccc(CCNC(=O)c2ccc(C#CC3(O)CCCCC3)cc2)cc1 was tested, and the IC50 was > 79 µM (inactive).

Work on O=[N+]([O-])c1ccc(Nc2nc(N/N=C/c3cccc(F)c3)nc(N3CCCC3)n2)cc1 yielded an IC50 of 9.66 µM.

For COCCn1ccc2c(OCC(=O)Nc3ccccc3OC)cccc2c1=O, the IC50 was > 79 µM (inactive).

In the case of COc1cccc(/C=N/Nc2nc3ccccc3n3cnnc23)c1, the IC50 is reported as > 79 µM (inactive).

COCCN1Cc2cccc(C(=O)Nc3cccc(-c4nc5ccccc5[nH]4)c3)c2C1=O was tested, and the IC50 was 3.91 µM.

In the case of COc1ccc(-n2nc(C(=O)NCC(=O)Nc3cc(OC)c(OC)c(OC)c3)c3ccccc3c2=O)cc1Cl, the IC50 is reported as 3.02 µM.

For CCN(CC)S(=O)(=O)c1ccc(Nc2nc3ccccc3n3nnnc23)cc1, the IC50 was 4.92 µM.

COc1ccc(-c2nc(NC(=O)c3ccc(OCC(=O)N4CCOCC4)c(OC)c3)sc2C)cc1 was tested, and the IC50 was > 79 µM (inactive).

Molecule COc1ccc2c(c1OC)C(=O)N1c3ccccc3C(=O)N(c3ccccc3)C21 (stereo not drawn) has an IC50 of 6.9 µM.

O=C(/C=C\c1cn(-c2ccccc2)nc1-c1ccc2c(c1)OCCO2)N1CCOCC1 was tested, and the IC50 was 7.49 µM.

COc1cccc(-c2cnc3c(NC=O)cc(-c4ccc(O)c(OC)c4)cn23)c1 was tested, and the IC50 was 5.89 µM.

Molecule NC(=O)c1nsc(C(=O)N(Cc2ccco2)C(C(=O)NCc2ccccc2)c2ccc(O)cc2)c1N (stereo not drawn) has an IC50 of 9.87 µM.

Cc1cccc(NC(=O)c2nc[nH]c2C(=O)NCC(=O)OCc2ccccc2)c1 gave an IC50 of 3.54 µM.

Nc1cc2[nH]c(=O)c3ccccc3c2cc1[N+](=O)[O-] showed an IC50 of 5.96 µM.

For Cn1c(=O)n(CCc2ccccc2)c(=O)c2c1nc1n2CCN1Cc1ccco1, the IC50 was > 79 µM (inactive).

O=C(Nc1ccc2nc(N3CCOCC3)sc2c1)c1cc2ccccc2o1 was tested, and the IC50 was 4.75 µM.

With CC1(C)Oc2ccc3ccc(=O)oc3c2/C(=C/Nc2ccccn2)C1=O the IC50 was > 79 µM (inactive).

For CCN(CC)c1ccc(C2C(C(=O)OC(C)C)C(=O)CC(C)(O)C2C(=O)OC(C)C)cc1 (stereo not drawn), the IC50 was 7.99 µM.

With O=c1cc(-c2cccnc2)oc2c1ccc1ccccc12 the IC50 was 31.2 µM (inactive).

CCOC(=O)c1cc(-c2nnc(-c3cc(OC)c(OC)c(OC)c3)o2)c(C)nc1C was tested, and the IC50 was 2.25 µM.

COc1ccc(-c2cnc3c(NC=O)cc(-c4cccc(NS(C)(=O)=O)c4)cn23)cc1OC was tested, and the IC50 was 5.59 µM.

Work on CCOC(=O)C1CCN(c2cc3c(cc2NC(=O)c2ccccc2)n(C)c(=O)n3C)CC1 yielded an IC50 of 5.18 µM.

With COC(=O)c1cc(NC(=O)Nc2cc(OC)ccc2OC)cc(C(=O)OC)c1 the IC50 was 22.3 µM (inactive).

Molecule CC(=O)c1ccc(-c2ccc(C(=O)Nc3nc(-c4ccccn4)cs3)o2)cc1 has an IC50 of 1.57 µM.

With Cc1c(C(=O)NCC2COc3ccccc3O2)oc2ccc(S(=O)(=O)N3CCOCC3)cc12 (stereo not drawn) the IC50 was > 79 µM (inactive).

O=C(N/N=C/c1ccccn1)c1cc(-c2cccc3ccccc23)n[nH]1 showed an IC50 of 6.66 µM.

COc1cc(C(=O)NCC(=O)N/N=C/c2ccc(-c3cccc([N+](=O)[O-])c3)o2)cc(OC)c1OC was tested, and the IC50 was 9.76 µM.

O=C(Nc1cccc(/C=C/c2ccccn2)c1)c1ccc(-n2cncn2)cc1 showed an IC50 of 3.13 µM.

With CCOC(=O)c1nc(Nc2ccc(C(=O)OC)cc2)c2ccccc2n1 the IC50 was 6.89 µM.

In the case of COc1cc(-c2cc(C(=O)NCc3ccco3)c3ccccc3n2)cc(OC)c1OC, the IC50 is reported as 13.5 µM (inactive).

CCn1cc(C(=O)Nc2cccc(NC(C)=O)c2)c2cc(OC)c(OC)cc2c1=O was tested, and the IC50 was 16.1 µM (inactive).

Work on Cc1ccc(-c2nnc(NCc3nc4ccccc4[nH]3)c3ccccc23)cc1S(=O)(=O)N1CCOCC1 yielded an IC50 of 4.11 µM.

CCOC(=O)C1CCN(c2cc3c(cc2NC(=O)c2ccc(F)cc2)n(C)c(=O)n3C)CC1 was tested, and the IC50 was 25.8 µM (inactive).

In the case of COc1cc(C(=O)Nc2cccc(-c3nnc(-c4ccco4)o3)c2)ccc1OC(C)=O, the IC50 is reported as > 79 µM (inactive).

For Cc1ccc(NC(=O)c2nc[nH]c2C(=O)NCCCCCCNC(=O)c2[nH]cnc2C(=O)Nc2ccc(C)cc2)cc1, the IC50 was 3.93 µM.

With O=C(CCCn1c(SCC(=O)c2ccc(O)c(O)c2)nc2ccccc2c1=O)NCC1CCCO1 (stereo not drawn) the IC50 was 21.7 µM (inactive).

CC(C)(C)NC(=O)c1cc(NC(=O)c2cccs2)cc(NC(=O)c2cccs2)c1 gave an IC50 of 8.4 µM.

COc1cc(-c2cnc3c(NC=O)cc(-c4cccnc4)cn23)cc(OC)c1OC was tested, and the IC50 was 24.6 µM (inactive).

COc1ccc(C(=O)Nc2cccc(/C(C)=N/NC(=O)c3ccc([N+](=O)[O-])c(C)c3)c2)cc1OC gave an IC50 of 4.93 µM.

Work on CCOC(=O)C1CCN(C(=O)c2ccc3c(=O)n4nc(Nc5ccccc5OC)sc4nc3c2)CC1 yielded an IC50 of 6.31 µM.

CC(=O)c1ccc(-c2cnc3c(NC=O)cc(-c4cccc(NS(C)(=O)=O)c4)cn23)cc1 gave an IC50 of 8.18 µM.

O=C(C(=O)N(Cc1ccccc1)Cc1ccccc1)c1c(-c2ccccc2)[nH]c2ccccc12 gave an IC50 of 0.33 µM.

O=C(Nc1cccnc1)c1sc(Nc2ccccc2)nc1-c1ccccc1 gave an IC50 of 8.72 µM.

Molecule CC(=O)c1cccc(NC(=O)Nc2ccc3c(c2)N(C)C(=O)CS3)c1 has an IC50 of 3.53 µM.

With COc1ccc(-c2cc(C(=O)N(C)Cc3ccccc3F)c3ccccc3n2)cc1OC the IC50 was > 79 µM (inactive).

For C=CC[C@@H](CC(=O)N[C@H](CO)Cc1ccccc1)C(=O)N[C@@H](COC(=O)[C@@H](CC=C)CC(=O)OC(C)(C)C)Cc1ccccc1, the IC50 was 12.3 µM (inactive).

Molecule Nc1c(C(=O)N/N=C/c2cccnc2)oc2nc(-c3ccccc3)cc(-c3ccco3)c12 has an IC50 of 2.86 µM.

C=CCn1cnc2c(c1=O)c1nc3ccccc3nc1n2/N=C/c1cc(OC)c(OC)c(OC)c1 gave an IC50 of 1.09 µM.

In the case of COc1ccnc(Oc2ccccc2)c1C(=O)N/C=N/OCc1ccc(F)cc1Cl, the IC50 is reported as > 79 µM (inactive).

With COC(=O)c1cc2c(-c3ccccc3)cc3ccccn3c-2c1C(=O)OC the IC50 was 6.44 µM.

Cc1[nH]c2ccccc2c1/C=N/NC(=O)c1cc(-c2ccccc2)n[nH]1 gave an IC50 of 2.89 µM.

Molecule COC(=O)c1[nH]c2cc(OC)c(OC)cc2c1/C=N/Nc1ccccc1 has an IC50 of 6.78 µM.

For CCOC(=O)C1=C(C)N=c2s/c(=C\c3ccncc3)c(=O)n2C1c1ccc2c(c1)OCO2 (stereo not drawn), the IC50 was 8.34 µM.

With N#Cc1c(-c2ccco2)cc(-c2cccnc2)nc1N the IC50 was 11 µM (inactive).

With COc1cccc(-c2cnc3c(NC=O)cc(-c4cc(C)c(O)c(C)c4)cn23)c1 the IC50 was 10.2 µM (inactive).

In the case of CC/C(C)=N\N=C\c1c(O)n(CC)c2cc(C3=NNC(=O)CC3)ccc12, the IC50 is reported as 16.6 µM (inactive).

CC(C)(C)OC(=O)CNC(=O)c1[nH]cnc1C(=O)Nc1ccc(CNC(=O)OC(C)(C)C)cc1 showed an IC50 of 2.15 µM.

CC(C(=O)NC1CCCC1)N(C(=O)Cn1nnc(-c2ccc(F)cc2)n1)c1ccccc1F (stereo not drawn) was tested, and the IC50 was 1.68 µM.

Molecule Fc1ccc(-n2cc(-c3ccccc3)c3c(N4CCOCC4)ncnc32)cc1 has an IC50 of 6.27 µM.
